Source: patent US8691772B2, “HSP60, HSP60 peptides and T cell vaccines for immunomodulation” (Yeda Research and Development Co. Ltd., priority 2005, dated 2014)
Ends that are not written are not given here.

Legend:
activated A2b T cells [1] = assay: Anti-ergotypic cytokine response (cytokine assays); type: cell-based, Lewis rats; settings: rats vaccinated with peptide in IFA; response to activated A2b T cells
Text: (§1) T-cell lines and clones T-cell lines were raised and expanded using antigen presenting cells (APC) and antigens or peptides as described (Mor et al., 1992). Three Lewis rat T-cell lines were used in our experiments: Anti-HSP60, raised against recombinant human HSP60 (human HSP60 is 97% identical to rat HSP60 at the aa level); Anti-p277, raised against the p277 peptide of human HSP60 (96% identical its rat counterpart at the aa level) and Anti-MBP, raised against guinea pig MBP. For ergotypic stimulation, the A2b T-cell clone, specific for the 180-188 epitope of HSP65 (van Eden et al., 1988) was used; similar results were obtained when other rat T-cell clones were used as targets. A2b expresses MHC-I molecules constitutively and CD80, CD86 and MHC-II molecules upon activation, and can present peptide epitopes to T cells. Activated A2b cells were used on day 3 of their stimulation, and resting A2b cells were used on day 14-16 of their rest cycle, unless stated otherwise.
Cytokine assays. Supernatants were collected after 72 hr of stimulation with test antigens or stimulator cells. Pharmingen's OPTEIA IL-10, IL-4 and IFNγ kits (Pharmingen, San Diego, USA) and the TGFβ1 Emax® ImmunoAssay System (Promega, Madison, USA) were used to quantify cytokine release to culture supernatants, as previously described (Quintana et al., 2002b). […]

AA = settings: DNA or peptide vaccination; Quintana et al., Ragno et al.; cited from earlier work
activated A2b T cells [2] = assay: Anti-ergotypic T-cell proliferation assay; type: cell-based, Lewis rats; settings: rats vaccinated with peptide in IFA, 26 days after AA induction; compared to Mt3
Text: as §1
DNA and peptide vaccination. The vectors containing the full-length cDNA of the human hsp60 gene (pHSP60) or the cDNA corresponding to aa 1-140 (pI) or aa 130-260 (pII) have been previously described (Quintana et al., 2002, Quintana et al., 2002b, Quintana et al., 2003, Quintana et al., 2000). […]
Anti-ergotypic T-cell proliferation assay. […] The cultures were harvested and cpm were determined using a beta counter. […]

SOCS3 = SOCS3 expression in human T cells (immunoblot); type: cell-based; settings: for effect of blocker on HSP60-induced SOCS3 activation: human T cells pre-treated with blocker
diabetes = settings: single subcutaneous injection in mineral oil; cited from earlier work
[3] = system: Mouse splenic purified T cells; assay: Anti-CD3-induced IFNγ secretion (ELISA); type: cell-based, C57BL/6J mice; settings: for anti-CD3-induced IFNγ secretion: summary of Table 1
Description: (§2) T-cell proliferation: Mouse splenic purified T cells (1×10^5) were pre-incubated with the p277 analogs p277(Val^6Val^11) (SEQ ID NO:2) or p277(Ser^6Ser^11) (SEQ ID NO:3) at the indicated concentrations for 30-60 min, and transferred to anti-CD3 coated wells in triplicate or quadruplicate in 200 μl culture medium. After 72 h of incubation (37° C., 5% CO2) the cells were pulsed with 1 μCi [^3H]-thymidine for 7 h, and [^3H] thymidine incorporation was measured using a 96-well plate beta-counter. The mean cpm±Standard Error were calculated for each triplicate or quadruplicate.
Interferon-gamma (IFNγ) secretion to the culture media was determined by using an ELISA assay (OptiEIA kits, BD Pharmingen and Pierce Endogen) following the manufacturer's instructions. Standard curves were established using mouse recombinant cytokines. The assay detection limit was 16-32 pg/ml.

[4] = system: Mouse splenic purified T cells; assay: Anti-CD3-induced T-cell proliferation; type: cell-based, C57BL/6J mice; settings: for anti-CD3-induced T-cell proliferation: summary of Table 1
Text: Purification of naïve T cells: Mouse spleen-cell suspensions were depleted of red blood cells by treatment with red blood lysis buffer (Sigma, St Louis, USA). T cells were then purified by negative selection with a T-cell isolation kit containing biotin-conjugated monoclonal antibodies to CD11b, CD45R, DX5 and Ter-119 (Miltenyi Biotec, Bergisch Gladbach, Germany). This procedure routinely yielded T cell preparations that were >95% positive for the CD3 marker as determined by FACS analysis.
Cells and medium: The T-cells cultures were set in RPMI-1640 supplemented with 5% FCS (Hyclon Logan, Utah) 100 U/ml penicillin, 100 μg/ml streptomycin, 50 μM 2β-ME, 12.5 mM hepes, 2 mM L-glutamine, 1 mM sodium pyruvate and non essential amino acids (biological industries 01-340-1 diluted 1:100).
The hamster anti-mouse anti-CD3 antibody was collected by TCA precipitation from 2C11 hybridoma supernatant. For the proliferation assay, non-tissue culture-treated polystyrene flat-bottom 96-well microtiter plates (Nunc 269787) were incubated overnight at 4° C. with 0.5-2 μg/ml anti-CD3 antibody.
as §2

ConA-induced hepatitis = ConA-induced hepatitis (acute liver injury); type: in vivo, BALB/c mice
CD4^+CD25^+ T cells = assay: Co-culture of treated CD4+CD25+ T cells with CD4+CD25- T cells; type: cell-based, human; settings: CD4+CD25+ treated with peptide 1 ng/ml, 2 hours; co-culture with untreated CD4+CD25-
HSP60 = HSP60 expression in activated T cells by western blot; type: cell-based, Lewis rats; settings: LNC with Con A; A2b clone with peptide, 72 hr
Description: Western blotting. Cell lysates of resting or activated T cells were prepared by treatment for 15 minutes in the following lysis buffer: NP40 1%, NaCl 0.9%, Tris 50 mM, EDTA 1 mM, PMSF 0.4 mM, pepstatin A 4 μg/ml, leupeptin 4 μg/ml and aprotinin 4 μg/ml. The lysates were centrifuged for 15 min at 14000 rpm and the protein concentration in the supernatant was determined using a BCA protein assay kit (Pierce, Rockford, Ill., USA). The lysates were subjected to PAGE-SDS using a mini-gel apparatus (Bio-Rad Laboratories, Hercules, Calif.); 100 μg of each sample were loaded per well. Two identical gels were run each time in parallel: one gel was stained with Coomassie Brilliant Blue R-250 according to the manufacturer's protocol (Bio-Rad) and the other was electro-transferred to nitrocellulose membranes (Schleicher and Schuell, Dassel, Germany).
The nitrocellulose membranes were washed with PBS and then blocked for 1 hr with 2% bovine serum albumin (Sigma), 2.5% milk powder (Bio-Rad), Tris (Sigma) pH 7.5 10 mM, NaCl 150 mM and 0.02% thimerosal (Sigma). […] Finally, the membranes were developed using the Western Blotting Luminol Reagent (Santa Cruz Biotechnology Inc., Santa Cruz, Calif., USA), exposed to X-ray film and quantified using the NIH Image 1.63 program (National Institutes of Health, USA). Size was determined using pre-stained broad-range protein standard markers (Bio-Rad).

[5] = i.p. 330 μl, 500 ng/ml, 18 and 1 hr prior to ConA, 24 hr after ConA

In the case of KFGADARALMLQGVDLLADA [Hu3], the “anti-ergotypic cytokine secretion (IFNγ, TGFβ1, IL-10, IL-4)” value (activated A2b T cells [1]) is listed as “secreted IFNγ and TGFβ1, but not IL-10 or IL-4”, the “inhibition of AA by vaccination” value (AA) is listed as “can also inhibit AA” and the “anti-ergotypic proliferative response of LNC” value (activated A2b T cells [2]) is listed as “significantly (p<0.05) more effective in inducing an anti-ergotypic proliferative response”.
With pertussis toxin [reference compound] the “effect of blocker on HSP60-induced SOCS3 activation” value (SOCS3) was “had no effect”.
In the case of “VLGGGSALLRSIPALDSLTPANED [p277(Ser^6Ser^11)]”, the incidence of diabetes (diabetes) is given as “did not reduce the incidence of diabetes”, the “Percent Inhibition of IFNγ secretion” value ([3]; peptide 0.1 ng/ml) is given as 86.6% ± 11.3% and the “Percent Inhibition of IFNγ secretion” value ([3]; peptide 1 ng/ml) is given as 86.4% ± 1.3%. The “Percent Inhibition of IFNγ secretion” value ([3]; peptide 10 ng/ml) was 82.6% ± 4.75%, the “anti-CD3-induced IFNγ secretion” value [3] was “inhibited T-cell proliferation and IFNγ secretion” and the “anti-CD3-induced T-cell proliferation” value [4] was “inhibited T-cell proliferation and IFNγ secretion”.
For “VAGGGVTLLQAAPTLDELKLEG [MTp277, reference compound]”, the “serum level of IL-10” value (ConA-induced hepatitis; 2 hr after ConA) was “did not seem to have a significant effect on the levels of cytokines” and the “serum level of TNF-α” value (ConA-induced hepatitis; 2 hr after ConA) was “did not seem to have a significant effect on the levels of cytokines”.
In the case of “VLGGGVALLRVIPALDSLTPANED [p277(Val^6Val^11)]”, the “IFN-γ and TNF-α secretion, and proliferation in co-culture” value (CD4^+CD25^+ T cells) is reported as “significantly inhibited IFN-γ and TNF-α secretion, and proliferation”, the “Percent Inhibition of IFNγ secretion” value ([3]; peptide 0.1 ng/ml) is reported as 94% ± 0.81% and the “Percent Inhibition of IFNγ secretion” value ([3]; peptide 1 ng/ml) is reported as 88.9% ± 3.4%. For the same compound, the “Percent Inhibition of IFNγ secretion” value ([3]; peptide 10 ng/ml) was 86.7% ± 8.8%, the “anti-CD3-induced IFNγ secretion” value [3] was “inhibited T-cell proliferation and IFNγ secretion” and the “expression of activated SOCS3” value (SOCS3) was “induced a marked expression of activated SOCS3 in T cells”. For the same compound, the “Percent Inhibition of proliferation” value ([4]; peptide 0.1 ng/ml) was 50% ± 19%, the “Percent Inhibition of proliferation” value ([4]; peptide 1 ng/ml) was 73% ± 7.5% and the “Percent Inhibition of proliferation” value ([4]; peptide 10 ng/ml) was 69% ± 14%. For the same compound, the “anti-CD3-induced T-cell proliferation” value [4] was “inhibited T-cell proliferation and IFNγ secretion”, the “serum level of IL-6” value (ConA-induced hepatitis; 2 hr after ConA) was “increased the level of IL-6” and the “serum level of IL-10” value (ConA-induced hepatitis; 2 hr after ConA) was “significantly increased”. For the same compound, the “serum level of TNF-α” value (ConA-induced hepatitis; 2 hr after ConA) was “significantly decreased”, the “serum ALT” value (ConA-induced hepatitis; [5]) was “significantly inhibited ALT and AST secretion” and the “serum AST” value (ConA-induced hepatitis; [5]) was “significantly inhibited ALT and AST secretion”.
With Concanavalin A [Con A] the “expression levels of HSP60 (western blot)” value (HSP60) was “triggered a similar increase in the expression levels of HSP60”.
In the case of EESNTFGLQLELTEG [Mt176-90], the “expression levels of HSP60 (western blot)” value (HSP60) is reported as “up-regulation of HSP60”.
For polymyxin B [PMB, reference compound], the “effect of blocker on LPS-induced SOCS3 activation” value (SOCS3; LPS 100 ng/ml) was “inhibited by PMB”.
With N#C/C(=C/c1ccc(O)c(O)c1)C(=O)NCc1ccccc1 [AG490, reference compound] the “effect of blocker on HSP60-induced SOCS3 activation” value (SOCS3) was “abrogated the effect of HSP60on SOCS3 expression”.
